In PubChem BioAssay AID434951 (Broad Institute, 2010):
Active and inactive are the calls of the source.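 The calls were made as follows: active = a fitted half-maximal concentration EC50 for the rise in nuclear signal no higher than ten times the top dose tested; inconclusive = flat fit with activity between 30% and 70%, or unusable fit; inactive = EC50 beyond ten times the top dose.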

These molecules were tested against Hypoxia-inducible factor 1-alpha (Homo sapiens) (UniProt Q16665) (assay: activators of HIF1alpha nuclear accumulation, confirmation, imaging, fluorescence, U2OS GFP-HIF1alpha (AID 434951)). Details: U2OS GFP-HIF1alpha nuclear intensity, high-content imaging.
Hypoxia-inducible factor 1-alpha (Homo sapiens), sequence (Q16665 whole entry, looked up): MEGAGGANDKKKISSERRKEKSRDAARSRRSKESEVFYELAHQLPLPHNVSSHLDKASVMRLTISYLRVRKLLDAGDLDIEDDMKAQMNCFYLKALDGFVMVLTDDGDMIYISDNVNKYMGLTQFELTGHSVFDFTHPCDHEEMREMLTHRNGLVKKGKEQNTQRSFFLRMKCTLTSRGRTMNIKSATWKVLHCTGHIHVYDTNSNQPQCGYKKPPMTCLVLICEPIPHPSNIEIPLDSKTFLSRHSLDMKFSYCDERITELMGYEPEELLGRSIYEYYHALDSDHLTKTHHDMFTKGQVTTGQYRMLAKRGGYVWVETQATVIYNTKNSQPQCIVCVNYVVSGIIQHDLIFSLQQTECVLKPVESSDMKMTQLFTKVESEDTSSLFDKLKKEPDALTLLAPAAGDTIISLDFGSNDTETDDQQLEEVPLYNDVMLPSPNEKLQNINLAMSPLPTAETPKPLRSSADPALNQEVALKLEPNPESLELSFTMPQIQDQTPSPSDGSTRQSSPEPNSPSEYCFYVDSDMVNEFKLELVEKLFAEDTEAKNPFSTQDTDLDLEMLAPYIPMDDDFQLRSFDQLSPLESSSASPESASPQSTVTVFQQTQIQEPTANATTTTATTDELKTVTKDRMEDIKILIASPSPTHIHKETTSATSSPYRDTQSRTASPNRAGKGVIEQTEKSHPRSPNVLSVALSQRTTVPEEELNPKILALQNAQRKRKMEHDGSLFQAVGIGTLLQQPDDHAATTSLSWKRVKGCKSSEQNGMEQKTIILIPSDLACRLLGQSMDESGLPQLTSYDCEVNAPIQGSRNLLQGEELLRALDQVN

Structure (SMILES) | EC50
Nc1ccc(C(=O)Nc2ccc3nc(-c4ccncc4)[nH]c3c2)cc1 | > 35 µM (inactive)
FC(F)(F)c1ccc2c(c1)NP(=S)(N1CCOCC1)c1nccn1-2 (configuration not stated) | > 35 µM (inactive)
C[C@@H](C(=O)Nc1ccc2c(c1)OCCO2)n1c(=O)[nH]c2ccccc2c1=O | > 35 µM (inactive)
COc1ccc(/C=C(\C#N)c2nc3ccccc3[nH]2)cc1O | > 35 µM (inactive)
CC(C)(C)NC(=O)CN(Cc1ccc2c(c1)OCO2)C(=O)CNS(=O)(=O)c1ccc(F)cc1 | > 35 µM (inactive)
Cc1nnsc1C(=O)N/N=C/c1ccc2ccccc2c1O | 3.13 µM
CCCC(=O)NC(c1ccccc1Cl)c1ccc2cccnc2c1O (configuration not stated) | 6.66 µM
Oc1[nH]c2ccccc2c1N=NC(=S)N1CCOCC1 | 8 µM
O=C(N/N=C/c1cccnc1)c1ccc(NC(=O)c2ccc(Cl)cc2)cc1 | > 35 µM (inactive)
CCOC(=O)c1sc(=S)n(-c2ccccc2)c1C | > 35 µM (inactive)
N#C/C(=C(/O)c1ccc(F)cc1)c1nc2ccccc2s1 | > 35 µM (inactive)
Cc1ccccc1NC(=O)CN(C)S(=O)(=O)c1ccc(-c2ccc(=O)[nH]n2)s1 | > 35 µM (inactive)
CCCC(=O)NC(c1ccc(OC)cc1)c1ccc2cccnc2c1O (configuration not stated) | 7.24 µM
CC(C)c1ccc2oc(=O)cc(CN3CCOCC3)c2c1 | > 35 µM (inactive)
CCCCNC(=O)c1cc(-c2ccc(F)cc2)on1 | 9.23 µM
COc1cccc(CN2CCC(N(CCc3ccccc3)Cc3ccccc3)CC2)c1OC | > 35 µM (inactive)
Oc1ccccc1/C=N/Nc1ncc(Br)cn1 | 13.4 µM
Oc1ccc(N=Nc2ccc3c(c2)OCCO3)c2cccnc12 | > 35 µM (inactive)
CC(=O)N(O)CCCCCNC(=O)CCC(=O)N(O)CCCCCNC(=O)CCC(=O)N(O)CCCCCN | 5.56 µM
CCCCC(=O)NC(c1ccccc1OC)c1ccc2cccnc2c1O (configuration not stated) | 6.81 µM
Cc1cc(OCC(=O)Nc2ccc3c(c2)OCCO3)cc(C)c1Cl | > 35 µM (inactive)
C=CCSc1cc(C)nc2c(-c3ccccc3)cnn12 | > 35 µM (inactive)
CN(CC(=O)Nc1ccc(F)c(F)c1F)C(=O)/C=C/c1ccc(Cl)cc1 | > 35 µM (inactive)
CCOc1ccccc1NC(=O)COc1ccc2c(c1)OCO2 | > 35 µM (inactive)
C[C@@H]1O[C@@H](OC[C@H]2O[C@@H](Oc3c(-c4ccc(O)cc4)oc4cc(O)cc(O)c4c3=O)[C@H](O)[C@@H](O)[C@@H]2O)[C@H](O)[C@H](O)[C@H]1O | > 35 µM (inactive)
CCC1CCc2sc(C(=O)NCc3ccccn3)cc2C1 (configuration not stated) | > 35 µM (inactive)

Structure (SMILES) | EC50
O=C(Cn1nc(-c2ccccc2Cl)ccc1=O)Nc1ccccc1-c1ccccc1 | > 35 µM (inactive)
Cc1ccc(Oc2ncc(CN3CC(C)OC(C)C3)s2)cc1 (configuration not stated) | > 35 µM (inactive)
COc1ccc(CCNC(=O)c2nnn(CC(=O)Nc3c(C)cc(C)cc3C)c2N)cc1OC | > 35 µM (inactive)
CCOc1ccccc1N(CC(=O)N/N=C/c1cc(Br)ccc1OC)S(C)(=O)=O | > 35 µM (inactive)
Cc1ccc(Nc2c(-c3ccccn3)nc3ccc(C)cn23)cc1 | 6.14 µM
COc1cccc(/C=N/Nc2ccc([N+](=O)[O-])cn2)c1O | 4.93 µM
COc1ccc(F)cc1CSc1nnnn1-c1ccc(O)cc1 | > 35 µM (inactive)
Oc1ccc2ccccc2c1N=Nc1ccccn1 | 9 µM
Oc1ccccc1/C=N/Nc1nc2ccccc2o1 | 8.18 µM
CCOC(=O)C1CCCN(C(=O)c2ccc3nc(-c4ccccc4)c(-c4ccccc4)nc3c2)C1 (configuration not stated) | > 35 µM (inactive)
COc1ccc(CCNC(=O)c2cc(-c3cccs3)on2)cc1OC | 7.39 µM
COc1ccccc1N1CCN(CCCNC(=O)C2CCCN(c3ncnc4c3nc3n4CCCCC3)C2)CC1 (configuration not stated) | > 35 µM (inactive)
CCOC(=O)c1c(C)[nH]c(C)c1S(=O)(=O)N1c2ccccc2CC1C (configuration not stated) | > 35 µM (inactive)
COC(=O)c1cc(S(=O)(=O)NCc2ccccc2OC)cn1C | > 35 µM (inactive)
CCOc1ccc2c(C)c(Cl)c(=O)oc2c1 | > 35 µM (inactive)
CCCCOC(=O)c1ccc(NC(=S)NC(=O)c2c(Br)c(C)nn2C)cc1 | > 35 µM (inactive)
Cc1oc(-c2ccc(Cl)cc2)nc1CS(=O)CC(=O)NCCN1CCCCCC1 (configuration not stated) | > 35 µM (inactive)
O=C(N/N=C/c1cc(Br)cc(Br)c1O)c1ccncc1 | > 35 µM (inactive)
COc1ccccc1NC(=O)c1nc(S(=O)(=O)Cc2ccccc2)ncc1Cl | > 35 µM (inactive)
Cc1cccc(-c2noc(CN(C)S(=O)(=O)c3cc(Cl)ccc3Cl)n2)c1 | > 35 µM (inactive)
Cc1cccc(NC(=O)Cc2noc3ccccc23)c1 | > 35 µM (inactive)
CC(=O)c1cccc(NS(=O)(=O)c2ccc(-c3cc(C)no3)s2)c1 | > 35 µM (inactive)
O=[N+]([O-])c1cc(Cl)cc(/C=N\Nc2ccccn2)c1O | 1.65 µM
COc1ccc(C(=O)/C=C/C(=O)N(CC(=O)NC2CCCCC2)CC2CCCO2)c(O)c1 (configuration not stated) | > 35 µM (inactive)
O=C(/C=C/c1ccc2c(c1)OCO2)Nc1cccnc1 | > 35 µM (inactive)
CCN(CC)c1ccc(/C=N/NC(=O)c2cccc(S(=O)(=O)N3CCOCC3)c2)c(O)c1 | 1.13 µM
